Some test systems named below: MDA-MB-435; DU-145; MOLT-4; HCT-116; RPMI-8226; SF-268; U-251; UO-31; Malme-3M; SK-MEL-2; UACC-257; HT-29; RXF 393; SN12C; SK-OV-3; MDA-N; A549; NCI/ADR-RES; SF-539; NCI-H460.
What all share (experiment): NCI-60 cell line screen, 48 h

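Grown in 96-well plates, cells were treated for 48 hours with each compound at five concentrations. Insufficient inhibition: endpoint recorded as highest concentration tested. GI50 = concentration required for 50% inhibition of growth.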 Activity calls are given as the source filed them. No stated cut-off is given here; in the data, active = GI50 up to about 1.1 µM and inactive = higher.

For the compound `CC(C)(C)OC(=O)N1CC(O)O[C@H](c2ccccc2)[C@@H]1c1ccccc1` (some centres not stated), the GI50 in the assay on MDA-MB-435 is 17.3 µM (inactive); with DU-145 it was 25.5 µM (inactive); in the assay on MOLT-4, 30.4 µM (inactive); with HCT-116, 44.6 µM (inactive); in the assay with RPMI-8226 it was 24.7 µM (inactive); in the assay on SF-268, 25.5 µM (inactive). In addition, the GI50 in the assay on U-251 was 14.4 µM (inactive); in the assay with UO-31 it was 17.6 µM (inactive); in the assay on Malme-3M, 19.4 µM (inactive); in the assay with SK-MEL-2, 14.5 µM (inactive); in the assay with UACC-257, 17.7 µM (inactive); in the assay with HT-29 it was 20.6 µM (inactive). Moreover, the GI50 with RXF 393 is 15.1 µM (inactive); in the assay with SN12C it was 38.2 µM (inactive); in the assay on SK-OV-3, 14.9 µM (inactive); with MDA-N, 28.2 µM (inactive); with A549, 18.7 µM (inactive); in the assay on NCI/ADR-RES it was 26.4 µM (inactive).
As for `CC1(C)SC2C(NC(=O)C(C(=O)O)c3ccccc3)C(=O)N2C1C(=O)O` (configuration not stated), the GI50 in the assay with MDA-MB-435, in the assay with DU-145, in the assay with MOLT-4, in the assay on HCT-116, in the assay with RPMI-8226 and in the assay on SF-268 was > 100 µM (inactive) each time. For the same compound, the GI50 with U-251, in the assay with UO-31, with Malme-3M, in the assay with SK-MEL-2, in the assay with UACC-257 and with HT-29 was > 100 µM (inactive) throughout. For the same compound, the GI50 with RXF 393, in the assay on SN12C, with SK-OV-3, with MDA-N, with NCI/ADR-RES and with SF-539 was > 100 µM (inactive) each time.
Turning to `Nc1nc(N)c2nn(-c3ccc(C(=O)O)cc3)nc2n1`, the GI50 in the assay with MDA-MB-435, with DU-145, in the assay with MOLT-4, in the assay on HCT-116, in the assay with RPMI-8226 and with SF-268 was > 100 µM (inactive) throughout. The GI50 in the assay on U-251, with UO-31, in the assay with SK-MEL-2, in the assay with UACC-257, in the assay on HT-29 and in the assay on RXF 393 was > 100 µM (inactive) throughout. The GI50 with SN12C, in the assay with SK-OV-3, with MDA-N, with NCI-H460, with A549 and with NCI/ADR-RES was > 100 µM (inactive) in each case. The GI50 in the assay on SF-539 was > 100 µM (inactive).
With `CC1(C)CN=C(Nc2ccc(F)cc2)S1`, the GI50 in the assay on MDA-MB-435, with DU-145, with MOLT-4, in the assay on HCT-116, in the assay on RPMI-8226 and in the assay on SF-268 was > 100 µM (inactive) each time. For the same compound, the GI50 in the assay on U-251, with UO-31, in the assay with Malme-3M, in the assay with SK-MEL-2, in the assay on UACC-257 and with HT-29 was > 100 µM (inactive) each time. Besides, the GI50 in the assay with RXF 393, with SN12C, with SK-OV-3, in the assay on MDA-N, in the assay with A549 and with NCI/ADR-RES was > 100 µM (inactive) in each case. In addition, the GI50 in the assay on SF-539 was > 100 µM (inactive).
For `CC(=O)C1=C(C)N2C(=NC3=C(CCc4ccccc43)C2c2cccc(Br)c2)S1` (configuration not stated), the GI50 was > 100 µM (inactive) in the assay on MDA-MB-435; > 100 µM (inactive) in the assay with DU-145; 30.8 µM (inactive) with HCT-116; 16.8 µM (inactive) in the assay with RPMI-8226; > 100 µM (inactive) in the assay with SF-268; > 100 µM (inactive) in the assay with U-251. Besides, the GI50 in the assay with UO-31 is > 100 µM (inactive); in the assay with SK-MEL-2 it was > 100 µM (inactive); with UACC-257, 84.1 µM (inactive); in the assay with HT-29, 22.1 µM (inactive); with RXF 393, > 100 µM (inactive); in the assay with SN12C it was > 100 µM (inactive). Moreover, the GI50 in the assay with SK-OV-3, with MDA-N, with A549, with NCI/ADR-RES and with SF-539 was > 100 µM (inactive) in each case.
For `Cc1ccc(S(=O)(=O)NC(=O)OC23COCN2COC3)cc1`, the GI50 was > 100 µM (inactive) with MDA-MB-435; > 100 µM (inactive) with DU-145; > 100 µM (inactive) with HCT-116; 29.5 µM (inactive) in the assay on RPMI-8226; > 100 µM (inactive) in the assay on SF-268; > 100 µM (inactive) with U-251. Also, the GI50 in the assay on UO-31, in the assay with Malme-3M, in the assay with SK-MEL-2, in the assay with UACC-257, in the assay with HT-29 and in the assay with RXF 393 was > 100 µM (inactive) throughout. The GI50 with SN12C, in the assay on SK-OV-3, in the assay on MDA-N, in the assay on NCI-H460, in the assay on A549 and in the assay with NCI/ADR-RES was > 100 µM (inactive) in each case. Further, the GI50 in the assay on SF-539 is > 100 µM (inactive).
Consider `CC(=O)OCC1OC(Oc2cc(C)c(O)cc2C/C=C(\C)CC/C=C(\C)CC(=O)CC(C)C)C(O)C(OC(C)=O)C1OC(C)=O` (configuration not stated), for which the GI50 in the assay on MDA-MB-435 was 15 µM (inactive); in the assay on DU-145 it was 23.3 µM (inactive); in the assay on MOLT-4, 9.23 µM (inactive); in the assay on HCT-116, 18.2 µM (inactive); in the assay on RPMI-8226 it was 9.16 µM (inactive); in the assay on SF-268, 21.2 µM (inactive). The GI50 with U-251 is 13.6 µM (inactive); with UO-31, 3.28 µM (inactive); in the assay on Malme-3M it was > 50 µM (inactive); with SK-MEL-2 it was 10.2 µM (inactive); in the assay on UACC-257 it was 12.1 µM (inactive); with HT-29, 6 µM (inactive). The GI50 in the assay with RXF 393 is 9.77 µM (inactive); in the assay with SN12C, 15.2 µM (inactive); in the assay on SK-OV-3 it was 26.2 µM (inactive); with MDA-N it was 18 µM (inactive); with NCI-H460, 13.7 µM (inactive); in the assay on A549 it was 7.8 µM (inactive). The GI50 with NCI/ADR-RES was 11.4 µM (inactive).
Turning to `CN(C)c1nc(N(C)C)nc(N(C)C23CC4CC(CC(C4)C2)C3)n1`, the GI50 with MDA-MB-435 is 40.2 µM (inactive); in the assay with DU-145 it was 41.1 µM (inactive); in the assay with HCT-116, 20.5 µM (inactive); in the assay on RPMI-8226, 23.7 µM (inactive); with SF-268 it was 39.5 µM (inactive); with U-251 it was 30.1 µM (inactive). Besides, the GI50 was 61.1 µM (inactive) with UO-31; 33 µM (inactive) in the assay on Malme-3M; 25.1 µM (inactive) in the assay on SK-MEL-2; 34.3 µM (inactive) in the assay on UACC-257; 20 µM (inactive) in the assay on RXF 393; 17.9 µM (inactive) in the assay with SK-OV-3. The GI50 in the assay on MDA-N was 21 µM (inactive); with NCI-H460, 53.1 µM (inactive); in the assay on A549, 39.3 µM (inactive); in the assay on NCI/ADR-RES it was > 100 µM (inactive); in the assay with SF-539 it was 31.8 µM (inactive).
Consider `S=C(NCCc1ccccn1)c1nc[nH]c1C(=S)NCCc1ccccn1`, for which the GI50 in the assay on MDA-MB-435 was 30.1 µM (inactive); with DU-145 it was 30.8 µM (inactive); with HCT-116, 34 µM (inactive); with RPMI-8226, 26 µM (inactive); with SF-268, 66.1 µM (inactive); with U-251, 45.5 µM (inactive). Also, the GI50 in the assay on UO-31 was 29 µM (inactive); in the assay with Malme-3M, 35.4 µM (inactive); with SK-MEL-2, 47.8 µM (inactive); with UACC-257 it was > 100 µM (inactive); in the assay with HT-29, > 100 µM (inactive); with RXF 393, 23 µM (inactive). The GI50 in the assay with SN12C was 68.5 µM (inactive); with SK-OV-3, > 100 µM (inactive); with MDA-N it was 41.7 µM (inactive); with NCI-H460, 24.1 µM (inactive); with A549 it was 32.3 µM (inactive); in the assay with NCI/ADR-RES it was 20.5 µM (inactive).
For `N=C(N)c1ccc2oc3ccc(C(=N)N)cc3c(=O)c2c1`, the GI50 in the assay on MDA-MB-435, in the assay on DU-145, in the assay on MOLT-4, in the assay on HCT-116, in the assay with RPMI-8226 and in the assay with SF-268 was > 100 µM (inactive) throughout. For the same compound, the GI50 is > 100 µM (inactive) in the assay with U-251; > 100 µM (inactive) in the assay on UO-31; 98.2 µM (inactive) in the assay with Malme-3M; > 100 µM (inactive) in the assay with SK-MEL-2; > 100 µM (inactive) in the assay on UACC-257; > 100 µM (inactive) in the assay on HT-29. Also, the GI50 with RXF 393, in the assay on SN12C, in the assay on MDA-N, in the assay with NCI-H460, with A549 and with NCI/ADR-RES was > 100 µM (inactive) in each case. The GI50 in the assay with SF-539 is > 100 µM (inactive).
Regarding `CCCCCCCCCCCCCCCCNc1nc(=O)n(C2CC(O)C(COP(=O)(O)OC3CC(n4cc(F)c(=O)[nH]c4=O)OC3CO)O2)cc1F` (configuration not stated), the GI50 with MDA-MB-435 is 13.1 µM (inactive); in the assay with DU-145 it was 0.222 µM (active); in the assay with MOLT-4, 1.95 µM (inactive); in the assay with HCT-116 it was 0.504 µM (active); in the assay on RPMI-8226, 0.0822 µM (active); in the assay on SF-268 it was < 0.0218 µM (active). In addition, the GI50 in the assay with U-251 is 1.66 µM (inactive); in the assay on UO-31 it was 0.257 µM (active); in the assay on Malme-3M, 12.1 µM (inactive); in the assay with SK-MEL-2, 30.1 µM (inactive); with UACC-257 it was 12.8 µM (inactive); in the assay on HT-29, 1.87 µM (inactive). Further, the GI50 was 6.97 µM (inactive) with RXF 393; 0.264 µM (active) with SN12C; 11.6 µM (inactive) with SK-OV-3; 19.4 µM (inactive) in the assay on MDA-N; 0.0333 µM (active) with A549; 0.634 µM (active) with NCI/ADR-RES. For the same compound, the GI50 in the assay with SF-539 is < 0.0108 µM (active).

(Values after ChEMBL document CHEMBL1201862, “PubChem BioAssay data set” (2004).)
